Assay results from ChEMBL document CHEMBL1155786, “Synthesis of 3'-deoxy-3'-C-methyl nucleoside derivatives” (Bioorg Med Chem, 2008).
The source made the active and inactive calls. The calls are words filed in the database; no cut-off is given here.

Each compound was assayed on Human immunodeficiency virus (assay: Antiviral activity against HIV at 100 uM).
Format: functional, organism-based

SMILES | Activity
C[C@H]1C[C@H](n2cnc3c(=O)[nH]c(N)nc32)O[C@@H]1CO | inactive
C[C@H]1C[C@H](n2cnc(C(N)=O)n2)O[C@@H]1CO | inactive
Cc1cn([C@H]2C[C@H](C)[C@@H](CO)O2)c(=O)[nH]c1=O | inactive
C[C@H]1[C@@H](O)[C@H](n2cnc(C(N)=O)c2N)O[C@@H]1CO | inactive
C[C@H]1[C@@H](O)[C@H](n2cnc(C(N)=O)n2)O[C@@H]1COC(=O)c1ccccc1 | inactive
Nc1ccn([C@H]2C[C@H](O)[C@@H](CO)O2)c(=O)n1 | inactive
C[C@H]1C[C@H](n2ccc(=O)[nH]c2=O)O[C@@H]1CO | inactive
C[C@H]1C[C@H](n2cnc3c(N)ncnc32)O[C@@H]1CO | inactive
C[C@H]1C[C@H](n2cnc(C(N)=O)n2)O[C@@H]1COC(=O)c1ccccc1 | inactive
C[C@H]1[C@@H](O)[C@H](n2cnc(C(N)=O)n2)O[C@@H]1CO | inactive
